Experimental findings from ChEMBL document CHEMBL1151214, “Pentacyclic triterpenoid esters from the fruits of Bruguiera cylindrica” (J Nat Prod, 2004) are described below.

Holding throughout (assay type): functional, cell-based
Assay [1] concerns NCI-H187. Briefly: Cytotoxicity against human NCI-H187 cells by colorimetric method.
Assay [2] deals with BC. Description: Cytotoxicity against human BC cells by colorimetric method.
For assay [3], the system named is KB. Description: Cytotoxicity against human KB cells by colorimetric method.

Values after ≈ are worked out from the molar mass of the structure shown. Active and inactive are the calls of the source. No cut-off for these calls is given here.

Regarding `COc1cc(/C=C/C(=O)O[C@H]2CC[C@]3(C)[C@H]4CC[C@]5(C)C(=CC[C@@]6(C)CCC(C)(C)C[C@H]65)[C@]4(C)CC[C@H]3C2(C)C)ccc1O`, the result in assay [1], in assay [2] and in assay [3] was inactive.
The IC50 is the concentration at which inhibition is half-maximal. With `CC1(C)CC[C@]2(C)CC=C3[C@]4(C)CC[C@H]5C(C)(C)[C@H](OC(=O)/C=C\c6ccc(O)cc6)CC[C@]5(C)[C@H]4CC[C@@]3(C)[C@@H]2C1`, in assay [1], the 50% inhibitory concentration (IC50) turned out to be 20 µg/mL (≈ 34.9 µM). Further, the result in assay [2] and in assay [3] was inactive.
For the molecule `COc1cc(/C=C/C(=O)O[C@@H]2CC[C@]3(C)[C@H]4CC[C@]5(C)C(=CC[C@@]6(C)CCC(C)(C)C[C@H]65)[C@]4(C)CC[C@H]3C2(C)C)ccc1O`, the outcome in assay [1], in assay [2] and in assay [3] was inactive.
`CC1(C)CC[C@]2(C)CC=C3[C@]4(C)CC[C@H]5C(C)(C)[C@H](OC(=O)/C=C/c6ccc(O)cc6)CC[C@]5(C)[C@H]4CC[C@@]3(C)[C@@H]2C1`: the outcome in assay [1], in assay [2] and in assay [3] was inactive.
`COc1cc(/C=C\C(=O)O[C@@H]2CC[C@]3(C)[C@H]4CC[C@]5(C)C(=CC[C@@]6(C)CCC(C)(C)C[C@H]65)[C@]4(C)CC[C@H]3C2(C)C)ccc1O` registered an IC50 in assay [1] of 12.2 µg/mL (≈ 20.2 µM). The result in assay [2] and in assay [3] was inactive.
